Results: patent US4120864A, “1,2,4-4H-triazole derivatives” (Rohm and Haas Company, priority 1972, dated 1978)
Where a name gives a salt, the structure may show the parent alone. Read-outs that look alike come from different tables or passages of the source.

Legend:
Format in all cases: in vivo
[1] = tested on: wheat leaf rust, Puccinia recondita; assay: whole plant or invertebrate; settings: foliar; for pest or weed control at 280.212 g/ha: read-out: % Control (without rain), foliar, 0.25 lb.; for pest or weed control at 1120.85 g/ha: read-out: % Control (without rain), foliar, 1 lb.
[2] = tested on: wheat leaf rust, Puccinia recondita; assay: whole plant or invertebrate; settings: foliar; for pest or weed control at 1120.85 g/ha: read-out: % Control (with 1" of rain), foliar, 1 lb., 1" of rain; for pest or weed control at 280.212 g/ha: read-out: % Control (with 1" of rain), foliar, 0.25 lb., 1" of rain
[3] = tested on: wheat leaf rust, Puccinia recondita
[4] = tested on: wheat leaf rust, Puccinia recondita; assay: Foliar systemic activity on leaf rust
Text: Another type of systemic test was run in which pots of approximately 5 inch high wheat plants were sprayed with varying concentrations of the test compound. Thirty-six hours later they were sprayed six minutes in a rain machine which amounted to about one inch of normal rainfall. The plants were then placed in a greenhouse for 7 days and then inoculated with a spore suspension of wheat leaf rust, Puccinia recondita. About 7 days later lesion counts were made on ten leaves representing the sprayed leaves and new growth from each replicate and compared with similar pots of wheat plants which were untreated with a chemical and the percent disease control determined. Disease control on the new growth is a measure of systemic activity. The commercial product known by the trademarked name Plantvax, which is 2,3-dihydro-5-carboxanilido-6-methyl-1,4-oxathiin-4,4-dioxide, was used as a standard.

## CCCCn1cnnc1Sc1ccc([N+](=O)[O-])cc1[N+](=O)[O-] [Example 127, 3-(2,4-dinitrophenylmercapto)-4-n-butyl-1,2,4-triazole]
[1]
  pest or weed control at 280.212 g/ha: 100%
  pest or weed control at 1120.85 g/ha: 100%
[2]
  pest or weed control at 1120.85 g/ha: 100%
[3]; 2.5 ppm in soil
  % Systemic Wheat Leaf Rust Control: 67%
[3]; 5 ppm in soil
  % Systemic Wheat Leaf Rust Control: 94%
[3]; 10 ppm in soil
  % Systemic Wheat Leaf Rust Control: 100%
[4]; 1/2 lb./100 gal.
  % Rust Control, New growth: 81%
  % Rust Control, Sprayed Leaf: 98%
[4]; 1/6 lb./100 gal.
  % Rust Control, New growth: 69%
  % Rust Control, Sprayed Leaf: 93%
[4]; 1/12 lb./100 gal.
  % Rust Control, New growth: 57%
  % Rust Control, Sprayed Leaf: 81%

## CCCCn1c(S)nnc1C(=O)OCC [Example 97]
[1]
  pest or weed control at 280.212 g/ha: 100%
  pest or weed control at 1120.85 g/ha: 100%
[2]
  pest or weed control at 280.212 g/ha: 100%
  pest or weed control at 1120.85 g/ha: 100%
[3]; 2.5 ppm in soil
  % Systemic Wheat Leaf Rust Control: 93%
[3]; 5 ppm in soil
  % Systemic Wheat Leaf Rust Control: 95%
[3]; 10 ppm in soil
  % Systemic Wheat Leaf Rust Control: 100%
[4]; 1/2 lb./100 gal.
  % Rust Control, New growth: 54%
  % Rust Control, Sprayed Leaf: 86%
[4]; 1/6 lb./100 gal.
  % Rust Control, New growth: 75%
  % Rust Control, Sprayed Leaf: 73%
[4]; 1/12 lb./100 gal.
  % Rust Control, New growth: 67%
  % Rust Control, Sprayed Leaf: 81%

## CCCCn1cnnc1 [Example 3, 4-n-butyl-1,2,4-triazole]
[1]
  pest or weed control at 280.212 g/ha: 100%
  pest or weed control at 1120.85 g/ha: 100%
[2]
  pest or weed control at 280.212 g/ha: 100%
  pest or weed control at 1120.85 g/ha: 100%
[3]; 2.5 ppm in soil
  % Systemic Wheat Leaf Rust Control: 100%
[3]; 5 ppm in soil
  % Systemic Wheat Leaf Rust Control: 100%
[3]; 10 ppm in soil
  % Systemic Wheat Leaf Rust Control: 100%
[4]; 1/2 lb./100 gal.
  % Rust Control, New growth: 100%
  % Rust Control, Sprayed Leaf: 99%
[4]; 1/6 lb./100 gal.
  % Rust Control, New growth: 98%
  % Rust Control, Sprayed Leaf: 99%
[4]; 1/12 lb./100 gal.
  % Rust Control, New growth: 85%
  % Rust Control, Sprayed Leaf: 97%

## CCCCn1c(S)nnc1C(=O)O [Example 95, triethanolamine salt of 3-mercapto-4-n-butyl-5-carboxy-1,2,4-triazole]
[1]; 0.25 lb.
  % Control (without rain): 98%
[1]; 1 lb.
  % Control (without rain): 99%
[2]; 0.25 lb.
  % Control (with 1" of rain): 100%
[2]; 1 lb.
  % Control (with 1" of rain): 100%
[3]; 2.5 ppm in soil
  % Systemic Wheat Leaf Rust Control: 98%
[3]; 5 ppm in soil
  % Systemic Wheat Leaf Rust Control: 99%
[3]; 10 ppm in soil
  % Systemic Wheat Leaf Rust Control: 100%
[4]; 1/2 lb./100 gal.
  % Rust Control, New growth: 90%
  % Rust Control, Sprayed Leaf: 90%
[4]; 1/6 lb./100 gal.
  % Rust Control, New growth: 75%
  % Rust Control, Sprayed Leaf: 78%
[4]; 1/12 lb./100 gal.
  % Rust Control, New growth: 63%
  % Rust Control, Sprayed Leaf: 46%

## CCCCn1c(SC(=O)NC)nnc1C(=O)O [Example 100, triethanolamine salt of 3 methyl-carbamoylmercapto-4-n-butyl-5-carboxy-1,2,4-triazole]
[1]; 0.25 lb.
  % Control (without rain): 100%
[1]; 1 lb.
  % Control (without rain): 100%
[2]; 0.25 lb.
  % Control (with 1" of rain): 100%
[2]; 1 lb.
  % Control (with 1" of rain): 100%
[3]; 2.5 ppm in soil
  % Systemic Wheat Leaf Rust Control: 89%
[3]; 5 ppm in soil
  % Systemic Wheat Leaf Rust Control: 99%
[3]; 10 ppm in soil
  % Systemic Wheat Leaf Rust Control: 99%
[4]; 1/2 lb./100 gal.
  % Rust Control, New growth: 79%
  % Rust Control, Sprayed Leaf: 79%
[4]; 1/6 lb./100 gal.
  % Rust Control, New growth: 63%
  % Rust Control, Sprayed Leaf: 79%
[4]; 1/12 lb./100 gal.
  % Rust Control, New growth: 54%
  % Rust Control, Sprayed Leaf: 57%

## CCCCn1cnnc1SCCOCC [Example 107, 3-(2-ethoxyethylmercapto)-4-n-butyl-1,2,4-triazole]
[1]
  pest or weed control at 280.212 g/ha: 100%
  pest or weed control at 1120.85 g/ha: 100%
[2]
  pest or weed control at 280.212 g/ha: 100%
  pest or weed control at 1120.85 g/ha: 100%
[3]; 2.5 ppm in soil
  % Systemic Wheat Leaf Rust Control: 52%
[3]; 5 ppm in soil
  % Systemic Wheat Leaf Rust Control: 85%
[3]; 10 ppm in soil
  % Systemic Wheat Leaf Rust Control: 89%
[4]; 1/2 lb./100 gal.
  % Rust Control, New growth: 61%
  % Rust Control, Sprayed Leaf: 73%
[4]; 1/6 lb./100 gal.
  % Rust Control, New growth: 23%
  % Rust Control, Sprayed Leaf: 27%
[4]; 1/12 lb./100 gal.
  % Rust Control, New growth: 17%
  % Rust Control, Sprayed Leaf: 25%
